Laboratory results reported in PubChem BioAssay (NCI).
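Method: 48-hour compound exposure of cells in 96-well plates, five concentrations, linear interpolation of endpoints. TGI denotes the concentration required for complete inhibition of growth.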

Assays:
Experiment in all cases: NCI anticancer screen, dose series, 48 h
[1] = test system: 786-0 renal
[2] = test system: A498 renal
[3] = test system: A549 NSCLC
[4] = test system: ACHN renal
[5] = test system: CAKI-1 renal
[6] = test system: CCRF-CEM leukemia
[7] = test system: COLO 205 colon
[8] = test system: DU-145 prostate
[9] = test system: EKVX NSCLC
[10] = test system: HCC-2998 colon
[11] = test system: HCT-116 colon
[12] = test system: HCT-15 colon
[13] = test system: HL-60(TB) leukemia
[14] = test system: HOP-62 NSCLC
[15] = test system: HOP-92 NSCLC
[16] = test system: HS 578T breast
[17] = test system: HT29 colon
[18] = test system: IGROV1 ovarian
[19] = test system: K-562 leukemia
[20] = test system: KM12 colon
[21] = test system: LOX IMVI melanoma
[22] = test system: M14 melanoma
[23] = test system: MALME-3M melanoma
[24] = test system: MCF7 breast
[25] = test system: MDA-MB-231 breast
[26] = test system: MDA-MB-435
[27] = test system: MDA-N
[28] = test system: MOLT-4 leukemia
[29] = test system: NCI-H226 lung
[30] = test system: NCI-H23 lung
[31] = test system: NCI-H460 lung
[32] = test system: NCI-H522 lung
[33] = test system: NCI/ADR-RES ovarian
[34] = test system: OVCAR-4 ovarian
[35] = test system: OVCAR-5 ovarian
[36] = test system: OVCAR-8 ovarian
[37] = test system: PC-3 prostate
[38] = test system: RPMI-8226 leukemia
[39] = test system: RXF 393 renal
[40] = test system: SF-268 CNS
[41] = test system: SF-295 CNS
[42] = test system: SK-MEL-2 melanoma
[43] = test system: SK-MEL-28 melanoma
[44] = test system: SK-MEL-5 melanoma
[45] = test system: SK-OV-3 ovarian
[46] = test system: SN12C renal
[47] = test system: SNB-19 CNS
[48] = test system: SNB-75 CNS
[49] = test system: SR leukemia
[50] = test system: T-47D breast
[51] = test system: TK-10 renal
[52] = test system: U251 CNS
[53] = test system: UACC-257 melanoma
[54] = test system: UACC-62 melanoma
[55] = test system: UO-31 renal
[56] = test system: BT-549 breast
[57] = test system: OVCAR-3 ovarian
[58] = test system: SF-539 CNS
[59] = test system: SW-620 colon

O=C1[C@@H](O)[C@@H]2CCCC[C@@]23CCCN13
TGI [1]: > 100 µM | TGI [2]: > 100 µM | TGI [3]: > 100 µM | TGI [4]: > 100 µM | TGI [5]: > 100 µM | TGI [6]: > 100 µM | TGI [7]: > 100 µM | TGI [8]: > 100 µM | TGI [9]: > 100 µM | TGI [10]: > 100 µM | TGI [11]: > 100 µM | TGI [12]: > 100 µM | TGI [13]: > 100 µM | TGI [14]: > 100 µM | TGI [15]: > 100 µM | TGI [16]: > 100 µM | TGI [17]: > 100 µM | TGI [18]: > 100 µM | TGI [19]: > 100 µM | TGI [20]: > 100 µM | TGI [21]: > 100 µM | TGI [22]: > 100 µM | TGI [23]: > 100 µM | TGI [24]: > 100 µM | TGI [25]: > 100 µM | TGI [26]: > 100 µM | TGI [27]: > 100 µM | TGI [28]: > 100 µM | TGI [29]: > 100 µM | TGI [30]: > 100 µM | TGI [31]: > 100 µM | TGI [32]: > 100 µM | TGI [33]: > 100 µM | TGI [34]: > 100 µM | TGI [35]: > 100 µM | TGI [36]: > 100 µM | TGI [37]: > 100 µM | TGI [38]: > 100 µM | TGI [39]: > 100 µM | TGI [40]: > 100 µM | TGI [41]: > 100 µM | TGI [42]: > 100 µM | TGI [43]: > 100 µM | TGI [44]: > 100 µM | TGI [45]: > 100 µM | TGI [46]: > 100 µM | TGI [47]: > 100 µM | TGI [48]: > 100 µM | TGI [49]: > 100 µM | TGI [50]: > 100 µM | TGI [51]: > 100 µM | TGI [52]: > 100 µM | TGI [53]: > 100 µM | TGI [54]: > 100 µM | TGI [55]: > 100 µM

C=C(Cl)C(C)(Cl)CCC(Cl)C(C)C (configuration not stated)
TGI [1]: > 100 µM | TGI [2]: > 100 µM | TGI [3]: > 100 µM | TGI [4]: > 100 µM | TGI [56]: > 100 µM | TGI [5]: > 100 µM | TGI [6]: > 100 µM | TGI [7]: > 100 µM | TGI [8]: > 100 µM | TGI [9]: > 100 µM | TGI [10]: > 100 µM | TGI [11]: > 100 µM | TGI [13]: > 100 µM | TGI [14]: > 100 µM | TGI [15]: > 100 µM | TGI [16]: > 100 µM | TGI [17]: > 100 µM | TGI [18]: > 100 µM | TGI [19]: > 100 µM | TGI [20]: > 100 µM | TGI [21]: 47.6 µM | TGI [22]: > 100 µM | TGI [23]: > 100 µM | TGI [24]: > 100 µM | TGI [25]: > 100 µM | TGI [26]: > 100 µM | TGI [27]: > 100 µM | TGI [28]: > 100 µM | TGI [29]: > 100 µM | TGI [30]: > 100 µM | TGI [31]: > 100 µM | TGI [32]: > 100 µM | TGI [33]: > 100 µM | TGI [57]: > 100 µM | TGI [34]: > 100 µM | TGI [35]: > 100 µM | TGI [37]: > 100 µM | TGI [38]: > 100 µM | TGI [39]: > 100 µM | TGI [40]: > 100 µM | TGI [41]: > 100 µM | TGI [58]: > 100 µM | TGI [42]: > 100 µM | TGI [43]: > 100 µM | TGI [44]: > 100 µM | TGI [45]: > 100 µM | TGI [46]: > 100 µM | TGI [47]: > 100 µM | TGI [48]: > 100 µM | TGI [49]: 64.2 µM | TGI [59]: > 100 µM | TGI [51]: > 100 µM | TGI [52]: > 100 µM | TGI [53]: > 100 µM | TGI [54]: > 100 µM | TGI [55]: > 100 µM

O=[N+]([O-])C(/C=C(\Cl)[N+](=O)[O-])=C(N1CCCCC1)N1CCCCC1
TGI [1]: > 100 µM | TGI [2]: 93.3 µM | TGI [3]: 54 µM | TGI [4]: > 100 µM | TGI [5]: > 100 µM | TGI [6]: 59 µM | TGI [7]: 55.5 µM | TGI [8]: > 100 µM | TGI [9]: > 100 µM | TGI [10]: > 100 µM | TGI [11]: 62.4 µM | TGI [12]: 68 µM | TGI [13]: 41.7 µM | TGI [14]: > 100 µM | TGI [15]: > 100 µM | TGI [16]: > 100 µM | TGI [17]: > 100 µM | TGI [18]: 61.1 µM | TGI [19]: 66.9 µM | TGI [20]: > 100 µM | TGI [21]: > 100 µM | TGI [22]: 57 µM | TGI [23]: 21.4 µM | TGI [24]: 18.9 µM | TGI [25]: > 100 µM | TGI [26]: 30.6 µM | TGI [27]: 41 µM | TGI [28]: > 100 µM | TGI [29]: > 100 µM | TGI [30]: > 100 µM | TGI [31]: > 100 µM | TGI [32]: > 100 µM | TGI [33]: > 100 µM | TGI [57]: 54.7 µM | TGI [34]: > 100 µM | TGI [35]: > 100 µM | TGI [36]: > 100 µM | TGI [37]: > 100 µM | TGI [38]: > 100 µM | TGI [39]: > 100 µM | TGI [40]: > 100 µM | TGI [41]: > 100 µM | TGI [58]: 56.7 µM | TGI [42]: > 100 µM | TGI [43]: > 100 µM | TGI [44]: 46.5 µM | TGI [45]: > 100 µM | TGI [46]: > 100 µM | TGI [47]: > 100 µM | TGI [49]: 51.1 µM | TGI [50]: > 100 µM | TGI [51]: > 100 µM | TGI [52]: > 100 µM | TGI [53]: 69.2 µM | TGI [54]: 60.8 µM | TGI [55]: 75.7 µM
